Measurements taken from article PMC11968506, “Toxicokinetics and analytical toxicology of the phenmetrazine-derived new psychoactive substance 3,4-methylenedioxyphenmetrazine studied by means of in vitro systems” (Archives of Toxicology, 2025).

Key:
[1] = In vitro plasma protein binding (ultrafiltration, Centrifree); format: in vitro ADME; settings: 30 min at 37 °C, triplicate
Experimental: PPB of MDPM was investigated based on published procedures with minor adjustments (Gampfer et al. [2020]), (Mardal et al. [2016]). A volume of 450 µL fresh human blood plasma was spiked with 50 µL of a 5 µM methanolic solution of MDPM. The mixture was incubated for 30 min at 37 °C. Plasma aliquots of 100 µL and 400 µL were transferred to a new reaction tube (global approach, GA) and onto two-chambered Centrifree devices from Merck (Darmstadt, Germany), respectively. The Centrifree devices were centrifuged for 40 min and 1600×g to obtain 100 µL of ultrafiltrate (UF). UF and GA were precipitated using 50 µL acetonitrile (− 20 °C). The mixture was vortexed, cooled for 30 min at − 20 °C, and centrifuged for 3 min at 18,407×g. […] Experiments were done in triplicate. Fraction unbound (fu) and PPB was determined by comparing the area ratios of MDPM and trimipramine-d3 in the UF and GA using the following equations:1 fu=peak area ratioMDPMUF/ISUF/peak area ratioMDPMGA/ISGA 2 PPB[%]=1-fu∗100

CYP1A2 = target: T1, CYP1A2 (Homo sapiens, UniProt P05177); assay: CYP inhibition cocktail assay in pHLM, CYP1A2 (phenacetin)
T1 sequence (P05177 1-516): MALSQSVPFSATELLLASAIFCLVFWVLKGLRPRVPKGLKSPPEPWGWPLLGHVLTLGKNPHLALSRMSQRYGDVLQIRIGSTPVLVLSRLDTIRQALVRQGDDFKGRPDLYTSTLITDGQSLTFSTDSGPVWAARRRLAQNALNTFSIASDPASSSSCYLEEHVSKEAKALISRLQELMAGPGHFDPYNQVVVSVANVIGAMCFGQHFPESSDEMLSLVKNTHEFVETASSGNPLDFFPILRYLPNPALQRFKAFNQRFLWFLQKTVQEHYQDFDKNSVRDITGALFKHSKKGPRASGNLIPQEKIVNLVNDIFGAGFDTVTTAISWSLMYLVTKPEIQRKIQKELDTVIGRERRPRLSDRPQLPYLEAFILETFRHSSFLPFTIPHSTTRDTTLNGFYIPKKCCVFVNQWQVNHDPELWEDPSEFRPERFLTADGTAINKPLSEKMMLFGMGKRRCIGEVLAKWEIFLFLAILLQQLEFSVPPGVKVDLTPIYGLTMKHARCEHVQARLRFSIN
Experimental: A modified dual-cocktail based method (Dinger et al. [2014b]) was used. Substrate cocktail A consisted of 8.9 µM dextromethorphan (CYP2D6), 86 µM testosterone (CYP3A4), 3.5 µM diclofenac (CYP2C9), and 12 µM phenacetin (CYP1A2). Substrate cocktail B included 30 µM bupropion (CYP2B6), 2 µM amodiaquine (CYP2C8) and 21 µM omeprazole (CYP2C19). Substrate concentrations were near their respective Michaelis–Menten constant (Km) values (Dinger et al. [2014a]) and all concentrations are final. Enzyme inhibition was investigated using a positive control, a test group, a control group, an interference group, and a negative control. In the test group, specific inhibitors were replaced by MDPM (20 µM). Instead of inhibitors, phosphate buffer was used in the control group. Enzymes were replaced with phosphate buffer in the negative control group. The interference group was incubated like the control group, but the reaction was stopped with 20 µM MDPM in acetonitrile, also containing 2.5 µM trimipramine-d3. All groups were incubated with a NADPH-regenerating system, consisting of 5 mM isocitrate, 2 U/mL isocitrate dehydrogenase, 5 mM Mg^2+, and 1.2 mM NADP^+. Further, substrate cocktail A or B, 90 mM phosphate buffer (pH 7.4), and 200 U/mL superoxide dismutase were added to each group. […] All groups were preincubated for 10 min at 37 °C. […] Enzyme inhibition was evaluated by metabolite formation. […]

CYP2C19 = CYP2C19 (Homo sapiens, UniProt P33261); assay: CYP inhibition cocktail assay in pHLM, CYP2C19 (omeprazole); settings: inhibitor 20 µM
CYP2C19, sequence (P33261 whole entry): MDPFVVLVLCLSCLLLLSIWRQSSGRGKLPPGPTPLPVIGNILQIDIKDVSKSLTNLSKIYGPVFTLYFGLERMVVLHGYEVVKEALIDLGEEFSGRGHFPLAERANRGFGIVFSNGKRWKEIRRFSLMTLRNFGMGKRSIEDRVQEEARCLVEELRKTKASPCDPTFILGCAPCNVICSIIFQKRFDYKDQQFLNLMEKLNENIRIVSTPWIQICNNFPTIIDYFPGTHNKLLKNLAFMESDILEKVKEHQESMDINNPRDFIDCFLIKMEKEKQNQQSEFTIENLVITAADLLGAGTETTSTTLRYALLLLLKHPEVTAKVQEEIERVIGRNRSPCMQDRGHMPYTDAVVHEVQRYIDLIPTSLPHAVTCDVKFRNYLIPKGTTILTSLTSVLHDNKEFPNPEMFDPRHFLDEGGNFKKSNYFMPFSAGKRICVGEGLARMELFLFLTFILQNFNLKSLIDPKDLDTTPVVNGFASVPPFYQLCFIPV
Experimental: A modified dual-cocktail based method (Dinger et al. [2014b]) was used. Substrate cocktail A consisted of 8.9 µM dextromethorphan (CYP2D6), 86 µM testosterone (CYP3A4), 3.5 µM diclofenac (CYP2C9), and 12 µM phenacetin (CYP1A2). Substrate cocktail B included 30 µM bupropion (CYP2B6), 2 µM amodiaquine (CYP2C8) and 21 µM omeprazole (CYP2C19). Substrate concentrations were near their respective Michaelis–Menten constant (Km) values (Dinger et al. [2014a]) and all concentrations are final. Enzyme inhibition was investigated using a positive control, a test group, a control group, an interference group, and a negative control. In the test group, specific inhibitors were replaced by MDPM (20 µM). Instead of inhibitors, phosphate buffer was used in the control group. Enzymes were replaced with phosphate buffer in the negative control group. The interference group was incubated like the control group, but the reaction was stopped with 20 µM MDPM in acetonitrile, also containing 2.5 µM trimipramine-d3. All groups were incubated with a NADPH-regenerating system, consisting of 5 mM isocitrate, 2 U/mL isocitrate dehydrogenase, 5 mM Mg^2+, and 1.2 mM NADP^+. Further, substrate cocktail A or B, 90 mM phosphate buffer (pH 7.4), and 200 U/mL superoxide dismutase were added to each group. […] All groups were preincubated for 10 min at 37 °C. Then, pHLM (0.4 mg microsomal protein/mL) was added to each group except the negative control. Incubations were done for 15 min at 37 °C. Therefore, 50 µL of acetonitrile (− 20 °C) containing 2.5 µM trimipramine-d3 as internal standard was added. Incubations were done in triplicates and organic solvent in the incubation mixture was below 1% (Chauret et al. [1998]). Afterwards the samples were vortexed and centrifuged for 2 min at 18,407×g. 70 µL of the supernatant were transferred to autosampler vials and 10 µL were injected onto the LC-HRMS/MS system. Enzyme inhibition was evaluated by metabolite formation. […] The following settings were used: unpaired; one-tailed; significance level, 0.05; confidence intervals, 99%.

CYP2D6 = CYP2D6 (Homo sapiens, UniProt P10635); assay: Monooxygenase mapping (ten human cDNA-expressed CYP isoforms and FMO3); format: in vitro ADME; parameters: Then, pHLM (0.4 mg microsomal protein/mL) was added to each group except the negative control; tissue Discovery Life Sciences; host or cells: pooled human liver microsomes, 25 donors; settings: MDPM 25 µM, CYP 50 pmol/mL each or FMO3 0.25 mg protein/mL, 90 and 270 min
CYP2D6, sequence (P10635 whole entry, canonical isoform): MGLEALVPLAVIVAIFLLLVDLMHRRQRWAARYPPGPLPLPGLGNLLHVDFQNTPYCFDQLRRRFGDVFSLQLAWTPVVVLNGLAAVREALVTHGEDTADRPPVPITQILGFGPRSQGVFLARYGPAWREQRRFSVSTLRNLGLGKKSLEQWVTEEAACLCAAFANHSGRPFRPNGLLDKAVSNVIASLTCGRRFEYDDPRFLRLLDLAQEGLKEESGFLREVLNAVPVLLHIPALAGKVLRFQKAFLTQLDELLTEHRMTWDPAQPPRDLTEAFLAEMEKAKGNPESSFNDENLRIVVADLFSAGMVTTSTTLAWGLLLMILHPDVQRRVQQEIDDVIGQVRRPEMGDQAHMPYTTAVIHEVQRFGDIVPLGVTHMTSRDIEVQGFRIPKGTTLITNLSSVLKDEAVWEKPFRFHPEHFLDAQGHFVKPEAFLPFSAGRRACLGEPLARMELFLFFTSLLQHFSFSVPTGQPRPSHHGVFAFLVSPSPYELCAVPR
Experimental: As described elsewhere (Wagmann et al. [2016]) and with minor modifications, MDPM (25 µM) was incubated with 2.5 mM isocitrate, 0.8 U/mL isocitrate dehydrogenase, 100 U/mL superoxide dismutase, 0.6 mM NADP^+, 2.5 mM Mg^2+ and CYP1A2, CYP2A6, CYP2B6, CYP2C8, CYP2C9, CYP2C19, CYP2D6, CYP2E1, CYP3A4, CYP3A5 (50 pmol/mL each), or FMO3 (0.25 mg protein/mL) for 90 and 270 min at 37 °C. For incubations with CYP2A6 or CYP2C9, phosphate buffer was replaced with 90 mM Tris buffer, according to the manufacturer’s guideline. Thirty µL aliquots were taken at both timepoints. The reaction was stopped using 20 µL acetonitrile (− 20 °C) with 2.5 µM trimipramine-d3 as an internal standard. All incubations were done in duplicates and concentrations are final. […] Negative control samples without enzymes and blank samples without substrate were incubated to identify not metabolically formed compounds and to confirm the absence of interfering compounds.

CC1NCCOC1c1ccc2c(c1)OCO2 (stereo not shown) [MDPM, 2-(1,3-benzodioxol-5-yl)-3-methylmorpholine]
fraction unbound at 30 min, 0.5 µM ([1]; fresh human blood plasma, read-out: plasma protein binding (PPB) (converted)): 0.68 | plasma protein binding (PPB) ([1]; human plasma): 32% | inhibition at 15 min, 20 µM (CYP1A2; human, pooled human liver microsomes (pHLM), pH 7.4, probe phenacetin (12 µM)): 39% | CYP1A2 metabolite formation (CYP1A2; inhibitor 20 µM, phenacetin 12 µM, pHLM 0.4 mg/mL, 15 min, control without inhibitor = 100%): 61% | CYP2C19 metabolite formation (CYP2C19; omeprazole 21 µM, pHLM 0.4 mg/mL, 15 min, control without inhibitor = 100%): 86% | inhibition of CYP2C19 (CYP2C19; omeprazole, pHLM, t-test versus control): no significant inhibition | isozymes forming the demethylenyl metabolite (O-demethylenation of MDPM) (CYP2D6): exclusively by CYP2D6
